Results taken from PubChem BioAssay (NCI).
Where “and” joins values, the source holds several entries; their conditions need not be identical. Equal entries are not always repeated.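 How tested: cells in 96-well plates exposed to compound for 48 hours at five concentrations. GI50: concentration for 50% inhibition of growth. TGI: concentration producing complete growth inhibition.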

Columns and labels:
Assay in all cases: NCI tumour cell line growth inhibition, 48 h
DMS 114 small cell lung = tested on: DMS 114 small cell lung
DMS 273 small cell lung = tested on: DMS 273 small cell lung
RXF 393 renal = tested on: RXF 393 renal
SN12C renal = tested on: SN12C renal
TK-10 renal = tested on: TK-10 renal
BT-549 breast = tested on: BT-549 breast
HCT-116 colon = tested on: HCT-116 colon
MCF7 breast = tested on: MCF7 breast
T-47D breast = tested on: T-47D breast
KM20L2 colon = tested on: KM20L2 colon
SNB-78 CNS = tested on: SNB-78 CNS

Q: For C=C[C@@]1(O)CCCC2=C(C(=O)OCC)CC[C@]21C, which TGI (DMS 114 small cell lung) is on record?
A: The TGI was > 100 µM.

Q: What about the TGI (DMS 273 small cell lung) of the same compound?
A: Its TGI is > 100 µM.

Q: What about the TGI (RXF 393 renal) of the same compound?
A: The TGI was > 100 µM.

Q: And the TGI (SN12C renal)?
A: Its TGI is > 100 µM.

Q: And the TGI (TK-10 renal)?
A: Its TGI is > 100 µM.

Q: For COc1ccc(C2SCC(=O)N2NC(=O)c2ccc(NC(C)=O)cc2)cc1 (stereo unspecified), which TGI (BT-549 breast) is on record?
A: The TGI was > 100 µM.

Q: And the TGI (HCT-116 colon)?
A: Its TGI is > 100 µM.

Q: And the TGI (MCF7 breast)?
A: The TGI was > 100 µM.

Q: What about the TGI (RXF 393 renal) of the same compound?
A: Its TGI is > 100 µM.

Q: What about the TGI (SN12C renal) of the same compound?
A: Its TGI is > 100 µM.

Q: What about the TGI (T-47D breast) of the same compound?
A: The TGI was > 100 µM.

Q: And the TGI (TK-10 renal)?
A: The TGI was > 100 µM.

Q: Which TGI (BT-549 breast) does the source give for O=C(CNc1ccccc1[N+](=O)[O-])Nn1c(-c2ccccc2)nc2ccccc2c1=O here?
A: Its TGI is 35.3 µM.

Q: What about the TGI (HCT-116 colon) of the same compound?
A: Its TGI is 41.4 µM.

Q: And the TGI (MCF7 breast)?
A: Its TGI is 34.2 µM.

Q: And the TGI (RXF 393 renal)?
A: The TGI was 38.9 µM.

Q: What about the TGI (SN12C renal) of the same compound?
A: The TGI was 63.1 µM.

Q: And the TGI (T-47D breast)?
A: The TGI was 39.2 µM.

Q: And the TGI (TK-10 renal)?
A: The TGI was > 10 µM.

Q: With Cc1cn2c(/C=N/N=C(N)N)c(-c3cccs3)nc2s1 as the compound, how does the GI50 (BT-549 breast) read?
A: Its GI50 is 8.07 µM.

Q: What about the TGI (BT-549 breast) of the same compound?
A: Its TGI is 22.8 µM.

Q: What about the GI50 (HCT-116 colon) of the same compound?
A: The GI50 was 1.35 µM.

Q: And the TGI (HCT-116 colon)?
A: Its TGI is 2.63 µM.

Q: And the GI50 (MCF7 breast)?
A: Its GI50 is 2.79 µM.

Q: And the TGI (MCF7 breast)?
A: Its TGI is 13.7 µM.

Q: And the GI50 (RXF 393 renal)?
A: The GI50 was 10.2 µM.

Q: What about the TGI (RXF 393 renal) of the same compound?
A: Its TGI is 46.2 µM.

Q: And the GI50 (SN12C renal)?
A: The GI50 was 0.161 µM.

Q: And the TGI (SN12C renal)?
A: The TGI was 3.08 µM.

Q: What about the GI50 (T-47D breast) of the same compound?
A: Its GI50 is 5.51 µM.

Q: And the TGI (T-47D breast)?
A: The TGI was 25.9 µM.

Q: What about the GI50 (TK-10 renal) of the same compound?
A: The GI50 was 12.9 µM.

Q: What about the TGI (TK-10 renal) of the same compound?
A: The TGI was 26 µM.

Q: Which TGI (DMS 114 small cell lung) does the source give for O=C1C(Cl)C(c2ccccc2O)N1n1cnc2ccccc2c1=O (stereo unspecified) here?
A: Its TGI is 81.4 µM.

Q: What about the TGI (DMS 273 small cell lung) of the same compound?
A: The TGI was > 100 µM.

Q: And the TGI (HCT-116 colon)?
A: The TGI was > 100 µM.

Q: What about the TGI (KM20L2 colon) of the same compound?
A: Its TGI is > 100 µM.

Q: What about the TGI (RXF 393 renal) of the same compound?
A: The TGI was 95.7 µM.

Q: And the TGI (SN12C renal)?
A: Its TGI is 20.4 µM.

Q: And the TGI (SNB-78 CNS)?
A: The TGI was > 100 µM.

Q: And the TGI (TK-10 renal)?
A: The TGI was > 100 µM.

Q: O=S1Nc2c(Cl)cc(Cl)c3c(Cl)cc(Cl)c(c23)N1 was tested. Which TGI (DMS 114 small cell lung) did it give?
A: Its TGI is > 100 µM.

Q: What about the TGI (DMS 273 small cell lung) of the same compound?
A: The TGI was > 100 µM.

Q: What about the TGI (HCT-116 colon) of the same compound?
A: The TGI was > 100 µM.

Q: And the TGI (KM20L2 colon)?
A: Its TGI is > 100 µM.

Q: What about the TGI (RXF 393 renal) of the same compound?
A: Its TGI is 50.9 µM.

Q: And the TGI (SN12C renal)?
A: The TGI was > 100 µM.

Q: What about the TGI (TK-10 renal) of the same compound?
A: The TGI was > 100 µM.

Q: COc1ccccc1CNCCCN1C(=O)c2ccc3c4c(ccc(c24)C1=O)C(=O)N(CCCCNCCCN)C3=O was tested. Which GI50 (BT-549 breast) did it give?
A: The GI50 was 2.23 µM.

Q: And the TGI (BT-549 breast)?
A: The TGI was 4.51 µM.

Q: And the GI50 (HCT-116 colon)?
A: The GI50 was 0.648 µM.

Q: And the TGI (HCT-116 colon)?
A: The TGI was 1.94 µM.

Q: What about the GI50 (MCF7 breast) of the same compound?
A: The GI50 was 0.472 µM.

Q: And the TGI (MCF7 breast)?
A: Its TGI is 1.35 µM.

Q: And the GI50 (RXF 393 renal)?
A: Its GI50 is 0.807 µM.

Q: And the TGI (RXF 393 renal)?
A: The TGI was 2.3 µM.

Q: And the GI50 (SN12C renal)?
A: Its GI50 is 0.704 µM.

Q: What about the TGI (SN12C renal) of the same compound?
A: The TGI was 2.09 µM.

Q: What about the GI50 (T-47D breast) of the same compound?
A: The GI50 was 1.13 µM.

Q: And the TGI (T-47D breast)?
A: Its TGI is 3.65 µM.

Q: What about the GI50 (TK-10 renal) of the same compound?
A: Its GI50 is 2.62 µM.

Q: What about the TGI (TK-10 renal) of the same compound?
A: Its TGI is 8.07 µM.

Q: With NC(=O)c1cccc(Nc2nccc(Nc3cccc4[nH]ncc34)n2)c1 as the compound, how does the GI50 (BT-549 breast) read?
A: The GI50 was 9.4 µM.

Q: What about the TGI (BT-549 breast) of the same compound?
A: The TGI was > 25 µM.

Q: What about the GI50 (HCT-116 colon) of the same compound?
A: Its GI50 is 8.58 µM.

Q: What about the TGI (HCT-116 colon) of the same compound?
A: Its TGI is > 25 µM.

Q: And the GI50 (MCF7 breast)?
A: The GI50 was 9.49 µM.

Q: What about the TGI (MCF7 breast) of the same compound?
A: Its TGI is > 25 µM.

Q: And the GI50 (RXF 393 renal)?
A: Its GI50 is 4.43 µM.

Q: What about the TGI (RXF 393 renal) of the same compound?
A: The TGI was 16.3 µM.

Q: What about the GI50 (SN12C renal) of the same compound?
A: The GI50 was 8.74 µM.

Q: And the TGI (SN12C renal)?
A: The TGI was > 25 µM.

Q: What about the GI50 (T-47D breast) of the same compound?
A: The GI50 was 2.99 µM.

Q: And the TGI (T-47D breast)?
A: The TGI was > 17.9 µM.

Q: What about the GI50 (TK-10 renal) of the same compound?
A: Its GI50 is 20.5 µM.

Q: What about the TGI (TK-10 renal) of the same compound?
A: Its TGI is > 25 µM.

Q: Which TGI (BT-549 breast) does the source give for Cc1cccc(C)c1NC(=O)Nc1ccc(S(N)(=O)=O)cc1 here?
A: Its TGI is > 100 µM.

Q: And the TGI (HCT-116 colon)?
A: Its TGI is > 100 µM.

Q: What about the TGI (MCF7 breast) of the same compound?
A: The TGI was > 100 µM.

Q: And the TGI (RXF 393 renal)?
A: Its TGI is > 100 µM.

Q: What about the TGI (SN12C renal) of the same compound?
A: The TGI was > 100 µM.

Q: What about the TGI (T-47D breast) of the same compound?
A: The TGI was > 100 µM.

Q: And the TGI (TK-10 renal)?
A: The TGI was > 100 µM.

Q: COc1ccc(-c2c3c(n(C4OC(COC(C)=O)C(OC(C)=O)C(OC(C)=O)C4OC(C)=O)c(=S)c2C#N)CC(C)(C)CC3=O)cc1 (stereo unspecified) was tested. Which TGI (BT-549 breast) did it give?
A: Its TGI is 93.3 µM and > 100 µM.

Q: And the GI50 (HCT-116 colon)?
A: The GI50 was 41.8 µM and > 100 µM.

Q: And the TGI (HCT-116 colon)?
A: The TGI was > 100 µM.

Q: And the TGI (MCF7 breast)?
A: The TGI was > 100 µM.

Q: What about the GI50 (RXF 393 renal) of the same compound?
A: Its GI50 is 20.2 µM and > 100 µM.

Q: And the TGI (RXF 393 renal)?
A: Its TGI is 71.8 µM and > 100 µM.

Q: And the TGI (SN12C renal)?
A: The TGI was > 100 µM.

Q: And the TGI (T-47D breast)?
A: Its TGI is > 100 µM.

Q: And the GI50 (TK-10 renal)?
A: The GI50 was 39.5 µM and > 100 µM.

Q: What about the TGI (TK-10 renal) of the same compound?
A: The TGI was > 100 µM.

Q: Which results are given for COC(C(=O)NCCCCNC(=O)C(OC)c1ccccc1)c1ccccc1 (stereo unspecified)?
A: TGI (DMS 114 small cell lung): > 100 µM; TGI (DMS 273 small cell lung): > 100 µM; TGI (HCT-116 colon): > 100 µM; TGI (KM20L2 colon): > 100 µM; TGI (RXF 393 renal): > 100 µM; TGI (SN12C renal): > 100 µM; TGI (SNB-78 CNS): > 100 µM; TGI (TK-10 renal): > 100 µM
